Experimental data reported in PMC12169455, “Discovery of Indole-Based PDE5 Inhibitors: Synthesis and Pharmacological Evaluation” (ACS Medicinal Chemistry Letters, 2025).
Where two headings read alike, the source gives them in different places.

How the values were obtained:
Recombinant human PDE5 = Recombinant human PDE5 (Homo sapiens, UniProt O76074); assay: PDE5 enzymatic assay coupled with LC/MS analysis for cGMP determination; assay type: biochemical
[1] = PAMPA using porcine brain lipids (BBB permeability); conditions: pig
[2] = test system: MCF-7 mammary epithelial adenocarcinoma cells; assay: MTT cytotoxicity assay; assay type: cell-based; conditions: MCF-7, MTT
Protocol: The cytotoxicity effect of compound 14a was investigated to validate its suitability as a lead compound for further drug development. The cancer cell line MCF-7 was used in an MTT assay assessing cell metabolic activity (see Supporting Information for materials and methods).
5 Cytotoxicity assay of compound 14a. The compound (0.1–100 μM) was dissolved in 20% DMSO in saline; ns = nonsignificant. […]
µM concentrations. […] The cells
MultiScreen® filter plate (cat. no. MAIPNTR10, Millipore). Sample solutions (300 µL, 50 µM, […]
at room temperature for 18 hours. Samples from the acceptor wells were collected and analyzed by HPLC (Nexera-i LC-2040C Plus, Shimadzu). Equilibrium solutions of compounds 5e, 14a, […]
HPLC. The assay was performed in triplicate. […]
used for the HPLC analysis. […]
apparent permeability (Papp) using the following equation:
P = C × ― ln 1 ― AUCa cm/s […]
this protocol, the donor volume (Vd) is 0.3 cm3, acceptor volume (Va) is 0.15 cm3, membrane

[3] = compound concentration range 0.1 nM – 100 μM, substrate concentration 150 nM, read-out: PDE5 IC50 ± SEM
[4] = compound tested at 10 μM, average of at least three independent experiments, read-out: % PDE5 Inhibition ± SEM
[5] = Papp (RSD), tested at 50 μM, 18 hours, n.d. = not detected
[6] = Papp relative to the BBB-permeable cutoff, higher than cutoff = BBB-permeable
[7] = PDE5 IC50 ± SEM, compound concentration range 0.1 nM – 100 μM, substrate concentration 150 nM
[8] = read-out: % PDE5 Inhibition ± SEM

| Compound | IC50 (Recombinant human PDE5; [3]) [µM] | inhibition at 10 µM (Recombinant human PDE5; [4]) [%] | other results |
| --- | --- | --- | --- |
| COc1ccc(NCc2cn(C)c3ccc(C#N)cc23)cc1Cl [Compound 5a] | 2.65 ± 0.48 | 77 ± 4.87 | – |
| CCCn1cc(CNc2ccc(OC)c(Cl)c2)c2cc(C#N)ccc21 [Compound 5b] | 2.46 ± 0.13 | 94.8 ± 2.58 | – |
| COc1ccc(NCc2cn(CC3CC3)c3ccc(C#N)cc23)cc1Cl [Compound 5c] | 1.37 ± 0.3 | 86.3 ± 1.97 | – |
| Cn1cc(CNCCN2CCOCC2)c2cc(C#N)ccc21 [Compound 5j] | – | 10.5 ± 1.69 | – |
| COc1ccc(CNC(=O)c2cn(CCN(C)C)c3ccc(C#N)cc23)cc1Cl [Compound 14a] | – | – | Papp at 18 h, 50 µM [1, 5]: 2.83 ×10⁻⁶ cm/s; Papp at 18 h, 50 µM [1, 6]: > 2 ×10⁻⁶ cm/s; biologically safe up to (cytotoxicity assay) [2]: up to 100 μM; concentration showing a cytotoxic effect ([2]; after 72 h incubation, safe at all other concentrations tested (0.1–100 μM)): 100 µM; IC50 (Recombinant human PDE5; PDE5 IC50, value quoted in abstract and conclusion): 0.0161 µM; IC50 (Recombinant human PDE5; [7]): 0.0161 ± 0.007 µM; increase in biological activity (PDE5) on replacing amine with amide (Recombinant human PDE5; compared with amine analogues): 2 log unit; inhibition at 0.5 µM (Recombinant human PDE5; [8]): 101 ± 4.99% |
| COc1ccc(NC(=O)c2cn(CCN(C)C)c3ccc(C#N)cc23)cc1Cl [Compound 14b] | – | – | IC50 (Recombinant human PDE5; [7]): 10.6 ± 1.99 µM; inhibition at 10 µM (Recombinant human PDE5; [8]): 47.5 ± 2.33% |
| COc1ccc(CNC(=O)c2cn(CCN(C)C)c3ccccc23)cc1Cl [Compound 14c] | – | – | IC50 (Recombinant human PDE5; [7]): 3.65 ± 0.97 µM; PDE5 inhibition effect compared to compound 5e (Recombinant human PDE5; at 10 μM): about double; inhibition at 10 µM (Recombinant human PDE5; [8]): 66.1 ± 2.34% |
| COc1ccc(CN(C)C(=O)c2cn(CCN(C)C)c3ccc(C#N)cc23)cc1Cl.Cl [Compound 14d] | – | – | IC50 (Recombinant human PDE5; [7]): 4.9 ± 0.68 µM; reduction of the enzymatic activity (PDE5) compared to 14a (Recombinant human PDE5; amide hydrogen replaced by methyl): 2 log unit; inhibition at 10 µM (Recombinant human PDE5; [8]): 52 ± 6.68% |
| CCCc1nn(C)c2c(=O)[nH]c(-c3cc(S(=O)(=O)N4CCN(C)CC4)ccc3OCC)nc12 [Sildenafil, sildenafil, reference compound] | – | – | inhibition at 0.01 µM (Recombinant human PDE5; [8]): 58.2 ± 2.33% |

Second part, led by results:

| IC50 (Recombinant human PDE5; [3]) [µM] | inhibition at 10 µM (Recombinant human PDE5; [4]) [%] | Compound | other results |
| --- | --- | --- | --- |
| 1.72 ± 0.72 | 99.2 ± 2.72 | COc1ccc(NCc2cn(CC(C)C)c3ccc(C#N)cc23)cc1Cl [Compound 5d] | – |
| – | 26.2 ± 3.85 | COc1ccc(NCc2cn(CCN(C)C)c3ccc(C#N)cc23)cc1Cl [Compound 5e] | Papp at 18 h, 50 µM [1, 5]: 5.62 ×10⁻⁶ cm/s; Papp at 18 h, 50 µM [1, 6]: > 2 ×10⁻⁶ cm/s |
| 10.4 ± 0.15 | 74.5 ± 1.95 | COCCn1cc(CNc2ccc(OC)c(Cl)c2)c2cc(C#N)ccc21 [Compound 5f] | – |
| – | 54.5 ± 4.21 | COc1ccc(NCc2cn(Cc3ccncc3)c3ccc(C#N)cc23)cc1Cl [Compound 5g] | – |
| 1.25 ± 0.15 | 72.2 ± 1.25 | COc1ccc(CNCc2cn(C)c3ccc(C#N)cc23)cc1Cl [Compound 5h] | – |
| – | 23.6 ± 2.24 | Cn1cc(CNCc2ccc3c(c2)OCO3)c2cc(C#N)ccc21 [Compound 5i] | – |
| 1.77 ± 0.39 | 73.4 ± 4.13 | Cn1cc(CNCc2ccc(Cl)c(C(F)(F)F)c2)c2cc(C#N)ccc21 [Compound 5k] | – |
| – | 73.4 ± 7.5 | COc1ccc(Nc2cn(S(=O)(=O)c3ccc(C)cc3)c3ccc(C#N)cc23)cc1Cl [Compound 10] | – |
